Data reported in US20230174493A1, “Solid Dispersions of Amorphous 3,4-Diphenyl-4,5-Dihydro-1H-Pyrazole Derivatives, Compositions Comprising them and Uses Thereof as Cannabinoid CB1 Receptor Inhibitors” (INVERSAGO PHARMA INC., priority 2020, published 2023).

How the values were obtained:
[1] = Pharmacokinetic properties in Beagle dogs, single oral dose compared with intravenous administration; settings: dog, in vivo, 2 mg/kg, fasted
Protocol: Pharmacokinetic properties were measured in Beagle dogs. Administration was done orally and compared with intravenous administration (2 mg/kg, in DMSO/tetraglycol/PEG400/water, 10:20:25:45). Each formulation was tested as a single dose on three (3) animals except for F6(b), which was tested on five (5) animals. Dogs were sampled at times 0, 1 h, 4 h, 8 h, 12 h, 24 h, 36 h, 48 h, and 72 h to give full time-concentration profiles. All tests were carried out with fasted dogs except test on normal dogs using F-SEDDS, which was carried on fed dogs. The results are as presented as an average between the tested animals.

[2] = Solubility of crystalline form (development efforts)
[3] = Oral bioavailability of crystalline form (development efforts)

For C/C(N)=N/C(=N\S(=O)(=O)c1ccc(C(F)(F)F)cc1)N1C[C@H](c2ccccc2)C(c2ccc(Cl)cc2)=N1 [Compound 1], the C0 ([1]; i.v. 2 mg/kg in DMSO/tetraglycol/PEG400/water 10:20:25:45, Normal dogs (about 11 kg)) was 2220 ng/mL, the C0 ([1]; i.v. 2 mg/kg in DMSO/tetraglycol/PEG400/water 10:20:25:45, Small dogs (about 7.5 kg)) was 1820 ng/mL and the AUC(0-inf) ([1]; i.v. 2 mg/kg, Normal dogs (about 11 kg)) was 15400 ng·h/mL. The half-life ([1]; i.v. 2 mg/kg, Normal dogs (about 11 kg), read-out: T½ (converted)) was 5.88 h, the Solubility [2] was “essentially insoluble” and the Oral bioavailability [3] was “very poor oral bioavailability”.
